Structures can show the parent of a compound that is named as a salt.
Key:
Assay type in all cases: biochemical
[1] = system: serotonine (5-HT) reuptake in synaptosomes; assay: Inhibition of 5-HT reuptake in synaptosomes; conditions: 3H-5-HT, read-out: 5-HT-uptake IC50
Method: (§1) Compounds were tested for their ability to inhibit the reuptake of the monoamine neurotransmitters dopamine (DA) noradrenaline (NA) and serotonine (5-HT) in synaptosomes as described in WO 97/16451 (NeuroSearch NS).
(§2) The test values are given as IC50 (the concentration (μM) of the test substance which inhibits the specific binding of ^3H-DA, ^3H-NA, or ^3H-5-HT by 50%).

[2] = system: dopamine (DA) reuptake in synaptosomes; assay: Inhibition of DA reuptake in synaptosomes; conditions: 3H-DA, read-out: DA-uptake IC50
Method: as §1, §2

[3] = system: noradrenaline (NA) reuptake in synaptosomes; assay: Inhibition of NA reuptake in synaptosomes; conditions: 3H-NA, read-out: NA-uptake IC50
Method: as §1, §2

Row | SMILES | IC50 [1] | IC50 [2] | IC50 [3]
1 | CCN(C(=O)CCCC1CCNCC1)c1ccc(Cl)c(Cl)c1 [Compound 3.1, N-(3,4-Dichloro-phenyl)-N-ethyl-4-piperidin-4-yl-butyramide fumaric acid salt] | 570 nM | 12 nM | 30 nM
2 | CCN(C(=O)CCCC1CCN(C)CC1)c1ccc(Cl)c(Cl)c1 [Compound 4.1, N-(3,4-Dichloro-phenyl)-N-ethyl-4-(1-methyl-piperidin-4-yl)-butyramide fumaric acid salt] | 800 nM | 6.9 nM | 12 nM

— patent US20110263651A1, “NOVEL PIPERIDINE-BUTYRAMIDE DERIVATIVES AND THEIR USE AS MONOAMINE NEUROT[…]-UPTAKE INHIBITORS” (N[…]/S, priority 2008, published 2011)
